From publication PMC10786919, “Design-rules for stapled peptides with in vivo activity and their application to Mdm2/X antagonists” (Nature Communications, 2024) come the findings set out here.

Data set [1] has as its system p53 responsive β-lactamase reporter in HCT116 cells. Nature of the data set: cells. In kind it is cell-based. The following applies: 0% FBS 4Hr. On the procedure: HCT116 cells were stably transfected with a p53 responsive β-lactamase reporter and expanded in McCoy’s 5 A Medium with 10% fetal bovine serum (FBS), Blasticidin, and Penicillin/Streptomycin and then transferred to 1.5 ml freezing vials and stored under liquid nitrogen in growth media containing 5% DMSO. […] The cells were then seeded into a 384-well plate at a density of 8000 cells per well. […] The final working concentration of DMSO was 0.5%. β-lactamase activity was detected using the ToxBLAzer Dual Screen (Invitrogen), as per the manufacturer’s instructions. Measurements were made using the Envision multiplate reader (Perkin–Elmer). […] Measurements were taken a minimum of three times (biological replicates) and values are reported as geometric means of the replicates.

A further data set is described as follows: in vitro. Conditions: Nanoclick permeability assay EC50. The method, boiled down: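 Azido-peptide permeability was read as loss of NanoBRET signal (donor 450 nm, acceptor 610 nm) after adding NanoBret618-azide at 10 μM final.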
A short description of data set [2]: Experimental LogD (partition coefficient). Conditions: not stated, Partition Coeff LogD.
A short description of data set [3]: Solubility assay (kinetic solubility, PBS pH 7). The following applies: pH 7, aqueous buffer, kinetic from dmso stock, pH 7, PBS; read-out: Solubility. In kind it is physicochemical. In outline:
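Std: 10 mM stock → 100 µM in ACN/MeOH/DMSO (10:80:10). Sol. [µM] = (sample peak area / std peak area) × std conc.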

For the next data set, the system named is HCT116 cells. Nature of the data set: Lactate dehydrogenase (LDH) release assay. Type of data set: cell-based. In outline: (§1)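 A p53 β-lactamase reporter HCT116 line, 8000 cells per well, is exposed to test compounds at 0.5% final DMSO and scored for LDH leakage.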
A short description of data set [4]: Lactate dehydrogenase (LDH) release assay. Type of data set: cell-based. The following applies: LDH: Cytotoxicity assay: EC50. In outline:
as §1

Setting [5] is: read-out: p53 reporter assay: EC50.
The mark [6] stands for this setting: read-out: p53 reporter assay EC50.

In brackets after ≈: the same amount, converted by molar mass. Like-named read-outs stand apart in the source and are kept apart here. Positions of bridges follow the written chain, without caps; N, C: chain ends. Non-standard residues stand in square brackets, D forms with d. Residues, ends and D or L forms follow the SMILES beside them. Phe(4-SO3H) = N[C@@H](Cc1ccc(S(=O)(=O)O)cc1)C(=O)O; Lys(N3) = [N-]=[N+]=NCCCC[C@H](N)C(=O)O; R8 = C=CCCCCCC[C@@](C)(N)C(=O)O; Cba = N[C@@H](CC1CCC1)C(=O)O; R5 = C=CCCC[C@@](C)(N)C(=O)O; S5 = C=CCCC[C@](C)(N)C(=O)O; Ahx = NCCCCCC(=O)O; βAla = NCCC(=O)O

`CC(=O)N[C@H](C(=O)N[C@@H](CO)C(=O)N[C@@H](Cc1ccccc1)C(=O)N[C@]1(C)CCCCCCC=CCCC[C@@](C)(C(=O)N[C@@H](CCC(=O)O)C(=O)N[C@@H](CC(N)=O)C(=O)N[C@H](Cc2ccccc2)C(N)=O)NC(=O)[C@H](CC(C)C)NC(=O)[C@H](CC(C)C)NC(=O)[C@H](C)NC(=O)[C@H](Cc2c[nH]c3ccccc23)NC(=O)[C@H](Cc2ccc(O)cc2)NC(=O)[C@H](CCC(=O)O)NC1=O)[C@@H](C)O` [MP-091]: in data set [1] (setting [5]), the EC50 amounted to 5.28 µM. Consider `CC(=O)N[C@@H](CCCCN)C(=O)N[C@@H](CCCCN)C(=O)N[C@@H](CO)C(=O)NCC(=O)N[C@@H](CO)C(=O)NCC(=O)N[C@H](C(=O)N[C@@H](CO)C(=O)N[C@@H](Cc1ccccc1)C(=O)N[C@]1(C)CCCCCCC=CCCC[C@@](C)(C(=O)N[C@@H](CCC(=O)O)C(=O)N[C@@H](CC(N)=O)C(=O)N[C@@H](Cc2ccccc2)C(N)=O)NC(=O)[C@H](CC(C)C)NC(=O)[C@H](CC(C)C)NC(=O)[C@H](C)NC(=O)[C@H](Cc2c[nH]c3ccccc23)NC(=O)[C@H](Cc2ccc(O)cc2)NC(=O)[C@H](CCC(=O)O)NC1=O)[C@@H](C)O` [MP-052] (Ac-KKSGSGTSF[R8]EYWALL[S5]ENF-NH2; staple 10-17), for which the concentration giving a half-maximal response (EC50) in data set [1] (setting [6]) came out at 12.9 µM. On to `CC(=O)N[C@@H](CCCCN)C(=O)NCCCCCC(=O)N[C@H](C(=O)N[C@@H](CO)C(=O)N[C@@H](Cc1ccccc1)C(=O)N[C@]1(C)CCCCCC/C=C\CCC[C@@](C)(C(=O)N[C@@H](CCC(=O)O)C(=O)N[C@@H](CC(N)=O)C(=O)N[C@@H](Cc2ccccc2)C(N)=O)NC(=O)[C@H](CC(C)C)NC(=O)[C@H](CC(C)C)NC(=O)[C@H](C)NC(=O)[C@H](Cc2c[nH]c3ccccc23)NC(=O)[C@H](Cc2ccc(O)cc2)NC(=O)[C@H](CCC(=O)O)NC1=O)[C@@H](C)O` [MP-2094], for which, in data set [1] (setting [5]), the EC50 is 6.49 µM. On the same count and under the same terms, the result for `CC(=O)N[C@H](C(=O)N[C@@H](CO)C(=O)N[C@@H](Cc1ccccc1)C(=O)N[C@]1(C)CCCCCCC=CCCC[C@@](C)(C(=O)N[C@@H](CCC(=O)O)C(=O)N[C@@H](CC(N)=O)C(N)=O)NC(=O)[C@H](CC(C)C)NC(=O)[C@H](CC(C)C)NC(=O)[C@H](C)NC(=O)[C@H](Cc2c[nH]c3ccccc23)NC(=O)[C@H](Cc2ccc(O)cc2)NC(=O)[C@H](CCC(=O)O)NC1=O)[C@@H](C)O` [MP-086] reads 17.4 µM. Consider `CC(=O)N[C@@H](CCCCN)C(=O)NCCCCCC(=O)N[C@H](C(=O)N[C@@H](CO)C(=O)N[C@@H](Cc1ccccc1)C(=O)N[C@]1(C)CCCCCCCCCCC[C@@](C)(C(=O)N[C@@H](CCC(=O)O)C(=O)N[C@@H](CC(N)=O)C(=O)N[C@@H](Cc2ccccc2)C(N)=O)NC(=O)[C@H](CC(C)C)NC(=O)[C@H](CC(C)C)NC(=O)[C@H](C)NC(=O)[C@H](Cc2c[nH]c3ccccc23)NC(=O)[C@H](Cc2ccc(O)cc2)NC(=O)[C@H](CCC(=O)O)NC1=O)[C@@H](C)O` [MP-049], for which, in data set [1] (setting [6]), the EC50 was determined as 8.74 µM.

Consider `CC(=O)N[C@H](C(=O)N[C@@H](CO)C(=O)N[C@@H](Cc1ccccc1)C(=O)N[C@]1(C)CCCCCC/C=C\CCC[C@@](C)(C(N)=O)NC(=O)[C@H](CC(C)C)NC(=O)[C@H](CC(C)C)NC(=O)[C@H](C)NC(=O)[C@H](Cc2c[nH]c3ccccc23)NC(=O)[C@H](Cc2ccc(O)cc2)NC(=O)[C@H](CCC(=O)O)NC1=O)[C@@H](C)O` [MP-2090], for which the EC50 in data set [1] (setting [5]) amounted to 5.78 µM. Same read-out and setting: the result for `CC(=O)N[C@H](C(=O)N[C@@H](CO)C(=O)N[C@@H](Cc1ccccc1)C(=O)N[C@]1(C)CCCC=CCCC[C@](C)(C(=O)N[C@@H](CC(C)C)C(=O)N[C@@H](CC(C)C)C(=O)N2CCC[C@H]2C(=O)N[C@@H](CCC(=O)O)C(=O)N[C@@H](CC(N)=O)C(=O)N[C@@H](Cc2ccccc2)C(N)=O)NC(=O)[C@H](Cc2c[nH]c3ccccc23)NC(=O)[C@H](Cc2ccc(O)cc2)NC(=O)[C@H](CCC(=O)O)NC1=O)[C@@H](C)O` [MP-078] (Ac-TSF[R5]EYW[R5]LLPENF-NH2; staple 4-8) reads 37.7 µM; that for `CC(=O)N[C@H](C(=O)N[C@@H](CO)C(=O)N[C@@H](Cc1ccccc1)C(=O)N[C@]1(C)CCCCCCCCCCC[C@@](C)(C(N)=O)NC(=O)[C@H](CC(C)C)NC(=O)[C@H](CC(C)C)NC(=O)[C@H](C)NC(=O)[C@H](Cc2c[nH]c3ccccc23)NC(=O)[C@H](Cc2ccc(O)cc2)NC(=O)[C@H](CCC(=O)O)NC1=O)[C@@H](C)O` [MP-089], 1.23 µM. Consider `CC(=O)N[C@@H](CCCCN)C(=O)N[C@@H](CCCCN)C(=O)N[C@@H](CCCCN)C(=O)NCCCCCC(=O)N[C@H](C(=O)N[C@@H](CO)C(=O)N[C@@H](C)C(=O)N[C@]1(C)CCCCCCC=CCCC[C@@](C)(C(=O)N[C@@H](CCC(=O)O)C(=O)N[C@@H](CC(N)=O)C(=O)N[C@@H](Cc2ccccc2)C(N)=O)NC(=O)[C@H](CC(C)C)NC(=O)[C@H](CC(C)C)NC(=O)[C@H](C)NC(=O)[C@H](Cc2c[nH]c3ccccc23)NC(=O)[C@H](Cc2ccc(O)cc2)NC(=O)[C@H](CCC(=O)O)NC1=O)[C@@H](C)O` [MP-070] (Ac-KKK[Ahx]TSA[R8]EYWALL[S5]ENF-NH2; staple 8-15), for which the concentration giving a half-maximal response (EC50) in data set [1] (setting [6]) is more than 50 µM. On the same count and under the same terms, the result for `CC(=O)N[C@@H](CCCCN)C(=O)N[C@@H](CCCCN)C(=O)NCCCCCC(=O)N[C@H](C(=O)N[C@@H](CO)C(=O)N[C@@H](C)C(=O)N[C@]1(C)CCCCCCC=CCCC[C@@](C)(C(=O)N[C@@H](CCC(=O)O)C(=O)N[C@@H](CC(N)=O)C(=O)N[C@@H](Cc2ccccc2)C(N)=O)NC(=O)[C@H](CC(C)C)NC(=O)[C@H](CC(C)C)NC(=O)[C@H](C)NC(=O)[C@H](Cc2c[nH]c3ccccc23)NC(=O)[C@H](Cc2ccc(O)cc2)NC(=O)[C@H](CCC(=O)O)NC1=O)[C@@H](C)O` [MP-069] (Ac-KK[Ahx]TSA[R8]EYWALL[S5]ENF-NH2; staple 7-14) reads more than 50 µM. On to `CC(=O)N[C@H](C(=O)N[C@@H](CO)C(=O)N[C@@H](Cc1ccccc1)C(=O)N[C@]1(C)CCCC=CCCC[C@](C)(C(=O)N[C@@H](CC(C)C)C(=O)N[C@@H](CC(C)C)C(=O)N2CCC[C@H]2C(=O)N[C@@H](CCC(=O)O)C(=O)N[C@@H](CC(N)=O)C(=O)N[C@@H](Cc2ccc(O)cc2)C(N)=O)NC(=O)[C@H](Cc2c[nH]c3ccccc23)NC(=O)[C@H](Cc2ccc(O)cc2)NC(=O)[C@H](CCC(=O)O)NC1=O)[C@@H](C)O` [MP-2082] (Ac-TSF[R5]EYW[R5]LLPENY-NH2; staple 4-8), for which, in data set [1] (setting [5]), the EC50 is 43 µM. Regarding `CC(=O)N[C@@H](CCC(=O)O)C(=O)N[C@@H](CCC(=O)O)C(=O)N[C@@H](CCC(=O)O)C(=O)N[C@@H](CCCCN=[N+]=[N-])C(=O)NCCC(=O)N[C@@H](CC(C)C)C(=O)N[C@H](C(=O)N[C@@H](Cc1ccccc1)C(=O)N[C@]1(C)CCCCCCC=CCCC[C@@](C)(C(=O)N[C@@H](CO)C(=O)N[C@@H](C)C(=O)N[C@@H](C)C(N)=O)NC(=O)[C@H](CC2CCC2)NC(=O)[C@H](CCC(N)=O)NC(=O)[C@H](C)NC(=O)[C@H](Cc2c[nH]c3ccccc23)NC(=O)[C@H](Cc2ccc(O)cc2)NC(=O)[C@H](CCC(=O)O)NC1=O)[C@@H](C)O` [MP-617], the cell entry EC50 in “in vitro” worked out at 0.842 µM. In data set [2], this compound displayed a logD of 2.09. Also, the solubility kinetic in data set [3] was determined as 81.5 µM (≈ 192 µg/mL). Also, the “LDH: Cytotoxicity assay: % Effect” value with HCT116 cells is listed as -1.09%. In data set [4], this compound had an EC50 of more than 50.6 µM. Taken in the same sequence, the figures for `CC(C)C[C@@H]1NC(=O)[C@H](C)NC(=O)[C@H](Cc2c[nH]c3ccccc23)NC(=O)[C@H](Cc2ccc(O)cc2)NC(=O)[C@H](CCC(=O)O)NC(=O)[C@](C)(NC(=O)[C@H](Cc2ccccc2)NC(=O)[C@H](CO)NC(=O)[C@@H](NC(=O)[C@H](CO)NC(=O)CNC(=O)[C@H](CO)NC(=O)[C@H](CCCCN=[N+]=[N-])NC(=O)[C@H](CCC(=O)O)NC(=O)[C@@H](N)CCC(=O)O)[C@@H](C)O)CCCCCCC=CCCC[C@@](C)(C(N)=O)NC(=O)[C@H](CC(C)C)NC1=O` [MP-0181] (H-EE[Lys(N3)]SGSTSF[R8]EYWALL[S5]-NH2; staple 10-17) were 2.07 µM, 2.05, 106 µM (≈ 219 µg/mL), 9.12% and more than 50.6 µM. For the compound `CC(=O)N[C@@H](CCCCN=[N+]=[N-])C(=O)NCCC(=O)N[C@@H](Cc1ccc(S(=O)(=O)O)cc1)C(=O)N[C@H](C(=O)N[C@@H](Cc1ccccc1)C(=O)N[C@]1(C)CCCCCCC=CCCC[C@@](C)(C(=O)N[C@@H](CO)C(=O)N[C@@H](C)C(=O)N[C@@H](C)C(N)=O)NC(=O)[C@H](CC2CCC2)NC(=O)[C@H](CCC(N)=O)NC(=O)[C@H](C)NC(=O)[C@H](Cc2c[nH]c3ccccc23)NC(=O)[C@H](Cc2ccc(O)cc2)NC(=O)[C@H](CCC(=O)O)NC1=O)[C@@H](C)O` [MP-7668] (Ac-[Lys(N3)][βAla][Phe(4-SO3H)]TF[R8]EYWAQ[Cba][S5]SAA-NH2; staple 6-13), the cell entry EC50 in “in vitro” amounted to 0.406 µM. The compound also yielded a logD in data set [2] of 2.31. Also, the solubility kinetic in data set [3] is 28 µM (≈ 58.4 µg/mL). In the data set on HCT116 cells, the “LDH: Cytotoxicity assay: % Effect” value came to 2.173%. The EC50 in data set [4] was more than 50.6 µM.
